Earlier results, collected in patent US8398606B2, “Folded perineal pad” (QuantrRx Biomedical Corporation, priority 2007, dated 2013).

Set-up: dose or concentration left out as unconfirmed
Conditions: ILP system releasing of estradiol as its 3-acetate ester, in HRT; maintained level

- circulating plasma concentration of the drug: 300 pmol/L
Compound: C[C@]12CC[C@@H]3c4ccc(O)cc4CC[C@H]3[C@@H]1CC[C@@H]2O [estradiol]
